Assay results published in PMC9747611 (Hypertension Research, 2022).
Like-named read-outs stand apart in the source and are kept apart here.

Legend:
[1] = Urine pharmacokinetics (fraction of dose excreted renally); type: in vivo, human
Method: (§1) Plasma and urine samples were analyzed to measure concentrations of baxdrostat and its primary metabolite (CIN-107-M), aldosterone and its precursors, cortisol and its precursor, and ACTH using a validated liquid chromatography tandem mass spectrometry method (LC-MS/MS). The quantifiable ranges for both baxdrostat and its metabolite CIN-107-M in plasma and urine were 0.05 to 50 ng/mL (low range) and 5 to 2500 ng/mL (high range), using baxdrostat-d5 and CIN-107-M-d3, respectively, as the internal standards. Plasma samples were extracted by protein precipitation with methanol, followed by analysis by LC-MS/MS with electrospray ionization in positive mode and multiple reaction monitoring. All scheduled study-related laboratory tests were performed by Medpace Reference Laboratories (Cincinnati, OH, USA), Medpace Bioanalytical Laboratories (Cincinnati, OH, USA), Mercy Health—West Hospital Laboratory (Cincinnati, OH, USA), or Laboratory Corporation of America (Dublin, OH, USA).
The cumulative amount of drug excreted in urine on day 1 (Ae,D1) and day 10 (Ae,D10), fraction of dose excreted renally on day 1 (Fe,D1) and day 10 (Fe,D10), and renal clearance on day 1 (CLR,D1) and day 10 (CLR,D10) composed single-dose urine PK parameters.

[2] = Plasma pharmacokinetics of baxdrostat and CIN-107-M, multiple ascending dose phase 1 study; type: in vivo, human; settings: for RAUC (accumulation ratio based on AUC) / RCmax (accumulation ratio based on Cmax): day 10 vs day 1, mean ± SD; for Cmax / Tmax / Vd/F / half-life: human, plasma, po; for Vd/F: read-out: Vss/F
Method: Subjects were randomized in a 3:1 ratio to baxdrostat or placebo once daily for 10 days as follows: • Cohort 1: 2.5 mg baxdrostat or matching placebo on a low-salt diet, 9 subjects receiving baxdrostat and 3 subjects receiving placebo • Cohort 2: 5.0 mg baxdrostat or matching placebo on a low-salt diet, 9 subjects receiving baxdrostat and 3 subjects receiving placebo • Cohort 3: 1.5 mg baxdrostat or matching placebo on a normal-salt diet, 9 subjects receiving baxdrostat and 3 subjects receiving placebo • Cohort 4: 2.5 mg baxdrostat or matching placebo on a normal-salt diet, 6 subjects receiving baxdrostat and 2 subjects receiving placebo • Cohort 5: 0.5 mg baxdrostat or matching placebo on a normal-salt diet, 9 subjects receiving baxdrostat and 3 subjects receiving placebo.
The study drug was a 2 mg/mL baxdrostat oral solution and matching oral placebo solution. Subjects received a single dose of oral solution of baxdrostat or placebo on the mornings of days 1 through 10 at 8:00 a.m. (± 2 h). On days 1 and 10, the dose was given following an overnight fast (of at least 8 h), and subjects remained fasted for at least 4 h after dosing on these days. On all other days, subjects fasted for a minimum of 2 h before and 2 h after dosing.
as §1
Blood samples were collected prior to and after dosing on days 1 and 10 for measurement of plasma baxdrostat and CIN-107-M concentrations to characterize single-dose and steady-state PK. Pharmacokinetic parameters were calculated by standard noncompartmental methods using Phoenix WinNonlin™ (Certara, Inc., Princeton, NJ) and verified with SAS (SAS Institute, Inc., Cary, NC) software. […] Steady-state plasma PK parameters consisted of accumulation ratio based on Cmax (RCmax), accumulation ratio based on AUC (RAUC), apparent first-order terminal elimination rate constant (λz), terminal phase elimination half-life (t1/2), apparent plasma clearance (CLss/F), and apparent volume of distribution (Vss/F).

[3] = 0.5 mg oral once daily, normal-salt diet, day 10, mean ± SD
[4] = 0.5 mg oral once daily, normal-salt diet
[5] = 1.5 mg oral once daily, normal-salt diet, day 10, mean ± SD
[6] = 1.5 mg oral once daily, normal-salt diet
[7] = 2.5 mg oral once daily, low-salt diet, day 10, mean ± SD
[8] = 2.5 mg oral once daily, low-salt diet
[9] = 2.5 mg oral once daily, normal-salt diet, day 10, mean ± SD, n=5
[10] = 2.5 mg oral once daily, normal-salt diet, n=5
[11] = 5.0 mg oral once daily, low-salt diet, day 10, mean ± SD
[12] = 5.0 mg oral once daily, low-salt diet

Structure (SMILES): CCC(=O)N[C@@H]1CCCc2c(-c3ccc4c(c3)CCC(=O)N4C)cncc21 [baxdrostat]
- baxdrostat dose recovered unchanged in the urine ([1]; day 1): Approximately 7%
- baxdrostat dose recovered unchanged in the urine ([1]; steady state (day 10)): ~ 32%
- AUC0-24hr ([2]; 0.5 mg oral once daily, normal-salt diet, day 1, mean ± SD): 79.47 ± 17.34 h‧ng/mL
- AUC0-tau [2, 3]: 155.19 ± 35.70 h‧ng/mL
- CLss/F [2, 3]: 3.42 ± 1.01 L/h
- RAUC (accumulation ratio based on AUC) [2, 4]: 1.96 ± 0.27
- RCmax (accumulation ratio based on Cmax) [2, 4]: 1.83 ± 0.26
- AUC0-24hr ([2]; 1.5 mg oral once daily, normal-salt diet, day 1, mean ± SD): 205.31 ± 36.74 h‧ng/mL
- AUC0-tau [2, 5]: 479.67 ± 138.21 h‧ng/mL
- CLss/F [2, 5]: 3.35 ± 0.92 L/h
- RAUC (accumulation ratio based on AUC) [2, 6]: 2.31 ± 0.32
- RCmax (accumulation ratio based on Cmax) [2, 6]: 2.13 ± 0.24
- AUC0-24hr ([2]; 2.5 mg oral once daily, low-salt diet, day 1, mean ± SD): 365.79 ± 65.51 h‧ng/mL
- AUC0-tau [2, 7]: 782.99 ± 143.02 h‧ng/mL
- CLss/F [2, 7]: 3.28 ± 0.53 L/h
- RAUC (accumulation ratio based on AUC) [2, 8]: 2.15 ± 0.16
- RCmax (accumulation ratio based on Cmax) [2, 8]: 1.97 ± 0.30
- AUC0-24hr ([2]; 2.5 mg oral once daily, normal-salt diet, day 1, mean ± SD): 343.98 ± 92.44 h‧ng/mL
- AUC0-tau [2, 9]: 676.51 ± 343.78 h‧ng/mL
- CLss/F [2, 9]: 4.32 ± 1.59 L/h
- RAUC (accumulation ratio based on AUC) [2, 10]: 1.99 ± 0.45
- RCmax (accumulation ratio based on Cmax) [2, 10]: 1.71 ± 0.58
- AUC0-24hr ([2]; 5.0 mg oral once daily, low-salt diet, day 1, mean ± SD): 657.85 ± 137.40 h‧ng/mL
- AUC0-tau [2, 11]: 1659.41 ± 440.51 h‧ng/mL
- CLss/F [2, 11]: 3.21 ± 0.84 L/h
- RAUC (accumulation ratio based on AUC) [2, 12]: 2.51 ± 0.26
- RCmax (accumulation ratio based on Cmax) [2, 12]: 2.42 ± 0.33
- dose proportionality of Cmax and AUC (power model, Hummel criteria) ([2]; day 1 (Cmax, AUC0-24 h) and day 10 (Cmax, AUC0-tau, AUC0-t)): proportional increase
- Cmax ([2]; 0.5 mg, 0.5 mg oral once daily, normal-salt diet, day 1, mean ± SD, n=9, read-out: Cmax,D1): 5.36 ± 1.25 ng/mL
- Tmax ([2]; 0.5 mg, 0.5 mg oral once daily, normal-salt diet, day 1, read-out: Tmax,D1, median (min, max)): 2 h
- Cmax ([2]; 0.5 mg, 0.5 mg oral once daily, normal-salt diet, day 10, mean ± SD, read-out: Cmax,D10): 9.72 ± 2.27 ng/mL
- Vd/F ([2]; 0.5 mg, 0.5 mg oral once daily, normal-salt diet, day 10, mean ± SD): 152 ± 44.5 L
- half-life ([2]; 0.5 mg, 0.5 mg oral once daily, normal-salt diet, day 10, mean ± SD, read-out: t1/2 (converted)): 31.2 ± 5.8 h
- Tmax ([2]; 0.5 mg, 0.5 mg oral once daily, normal-salt diet, day 10, read-out: Tmax,D10, median (min, max)): 2 h
- Cmax ([2]; 1.5 mg, 1.5 mg oral once daily, normal-salt diet, day 1, mean ± SD, n=9, read-out: Cmax,D1): 14 ± 2.24 ng/mL
- Tmax ([2]; 1.5 mg, 1.5 mg oral once daily, normal-salt diet, day 1, read-out: Tmax,D1, median (min, max)): 2.5 h
- Cmax ([2]; 1.5 mg, 1.5 mg oral once daily, normal-salt diet, day 10, mean ± SD, read-out: Cmax,D10): 29.9 ± 6.1 ng/mL
- Vd/F ([2]; 1.5 mg, 1.5 mg oral once daily, normal-salt diet, day 10, mean ± SD): 137 ± 15.8 L
- half-life ([2]; 1.5 mg, 1.5 mg oral once daily, normal-salt diet, day 10, mean ± SD, read-out: t1/2 (converted)): 29.9 ± 7.71 h
- Tmax ([2]; 1.5 mg, 1.5 mg oral once daily, normal-salt diet, day 10, read-out: Tmax,D10, median (min, max)): 2.5 h
- Cmax ([2]; 2.5 mg, 2.5 mg oral once daily, low-salt diet, day 1, mean ± SD, n=9, read-out: Cmax,D1): 28.1 ± 5.9 ng/mL
- Tmax ([2]; 2.5 mg, 2.5 mg oral once daily, low-salt diet, day 1, read-out: Tmax,D1, median (min, max)): 3 h
- Cmax ([2]; 2.5 mg, 2.5 mg oral once daily, low-salt diet, day 10, mean ± SD, read-out: Cmax,D10): 54 ± 7.56 ng/mL
- Vd/F ([2]; 2.5 mg, 2.5 mg oral once daily, low-salt diet, day 10, mean ± SD): 135 ± 36.7 L
- half-life ([2]; 2.5 mg, 2.5 mg oral once daily, low-salt diet, day 10, mean ± SD, read-out: t1/2 (converted)): 28.4 ± 4.75 h
- Tmax ([2]; 2.5 mg, 2.5 mg oral once daily, low-salt diet, day 10, read-out: Tmax,D10, median (min, max)): 2 h
- Cmax ([2]; 2.5 mg, 2.5 mg oral once daily, normal-salt diet, day 1, mean ± SD, n=6, read-out: Cmax,D1): 26.2 ± 4.76 ng/mL
- Tmax ([2]; 2.5 mg, 2.5 mg oral once daily, normal-salt diet, day 1, read-out: Tmax,D1, median (min, max)): 3 h
- Cmax ([2]; 2.5 mg, 2.5 mg oral once daily, normal-salt diet, day 10, mean ± SD, n=5, read-out: Cmax,D10): 43.9 ± 18.7 ng/mL
- Vd/F ([2]; 2.5 mg, 2.5 mg oral once daily, normal-salt diet, day 10, mean ± SD, n=5): 150 ± 42.4 L
- half-life ([2]; 2.5 mg, 2.5 mg oral once daily, normal-salt diet, day 10, mean ± SD, n=5, read-out: t1/2 (converted)): 25.6 ± 5.95 h
- Tmax ([2]; 2.5 mg, 2.5 mg oral once daily, normal-salt diet, day 10, n=5, read-out: Tmax,D10, median (min, max)): 3 h
- Cmax ([2]; 5 mg, 5.0 mg oral once daily, low-salt diet, day 1, mean ± SD, n=9, read-out: Cmax,D1): 47.3 ± 12.3 ng/mL
- Tmax ([2]; 5 mg, 5.0 mg oral once daily, low-salt diet, day 1, read-out: Tmax,D1, median (min, max)): 3.02 h
- Cmax ([2]; 5 mg, 5.0 mg oral once daily, low-salt diet, day 10, mean ± SD, read-out: Cmax,D10): 113 ± 25.9 ng/mL
- Vd/F ([2]; 5 mg, 5.0 mg oral once daily, low-salt diet, day 10, mean ± SD): 134 ± 42 L
- half-life ([2]; 5 mg, 5.0 mg oral once daily, low-salt diet, day 10, mean ± SD, read-out: t1/2 (converted)): 29.4 ± 6.47 h
- Tmax ([2]; 5 mg, 5.0 mg oral once daily, low-salt diet, day 10, read-out: Tmax,D10, median (min, max)): 3 h
- Tmax ([2]; across doses 0.5-5.0 mg oral once daily, read-out: median Tmax (time to peak plasma concentration after dosing)): ≤ 4 h
- half-life ([2]; range across doses 0.5-5.0 mg oral once daily for 10 days, read-out: mean t1/2): 26 to 31 h
